Measured values taken from patent publication US20210283249A1, “COMBINATION THERAPY FOR CANCER WITH EXON 14 SKIPPING MUTATION(S) OR EXON 14 SKIPPING PHENOTYPE” (Eli Lilly and Company, priority 2016, published 2021).
Where two headings read alike, the source gives them in different places.

Legend:
[1] = tested on: Hs746t cells; assay: Hs746t cell proliferation; type: cell-based, human
Description: (§1) Hs746t is a gastric cancer cell line known to have MET exon 14 skipping mutation(s) and MET amplification (Asaoka et al., Biochem Biophys Res Commun 394:1042-1046).

[2] = tested on: pMET; assay: pMET in Hs746t cells; type: cell-based, human
[3] = tested on: Hs746t-derived xenograft of human gastric carcinoma; assay: Hs746t xenograft model, Example 1 (combination vs monotherapy); type: in vivo, mice
Method: as §1
(§2) Female athymic nude mice (Envigo) are used for this study. Food and water are available ad libitum. Animals are acclimated for 1 week prior to any experimental manipulation. The study is performed in accordance with AAALAC accredited institutional guidelines.
Merestinib is formulated as a solution in 10% PEG 400/90% (20% Captisol in water). Emibetuzumab is diluted in phosphate buffered saline (PBS). Solutions are freshly prepared every 7 days.
Obtain Hs746t cells from ATCC (American Type Culture Collection) and maintain in RPMI 1640 with 10% fetal bovine serum at 37° C. in 5% CO2. Expand cells in culture, harvest, and wash in Hank's Balanced Salt Solution (HBSS, GIBC®). Implant sub-confluent […] cells into 60 female nu/nu mice at a concentration of 1×10^7 cells in 0.2 ml HBSS subcutaneously into the hind flank of the animal.
Administer merestinib by oral gavage at either 6 mg/kg or 12 mg/kg in a dose volume of 0.2 mL in 10% polyethylene glycol 400/90% of a mixture of 20% Captisol in water, and antibody treatments by intraperitoneal injection (IP) starting on day 12 after tumor cell implantation when average tumor volume of 350 mm^3 and ending on Day 33. Inject animals IP in a dosing volume of 10 mg/kg. After 14 days of dosing (Study Day 27), the animals in the control group are sacrificed because of tumor volumes exceeding >2000 mm^3. After the 28-day dosing period, animals in the single agent arms are sacrificed. […]
In both studies, animals are sacrificed using CO2 and cervical dislocation when tumors grow larger than 2000 mm^3, or at the end of study.
Record tumor growth and body weight changes at least twice a week. Body weight measurement during the course of the study, is a general indicator of tolerability.
(§3) Measure tumor growth with calipers and record body weights twice weekly. Calculate tumor volumes by the formula Volume (mm^3)=L×W^2 (π/6) where L represents the larger diameter and W the smaller diameter. Calculate T/C % using the formula T/C %=100×ΔT/ΔC. Where ΔT=mean tumor volume of the drug-treated group on the final day of the study−mean tumor volume of the drug-treated group on the initial day of the dosing and ΔC=mean tumor volume of the control group on the final day of the study−mean tumor volume of the control group on the initial day of the dosing. Calculate changes in body weight by the formula (Weight on observation day−Weight on day 12)/Weight on Day 12×100. Calculate test for significant differences between treatment groups by RMANOVA using the JMP (v.9.0.3) statistical package (SAS Institute Inc., Cary, N.C., USA).
The p-value from the 2×2 interaction test on day 28 is not significant at p=0.654. All pairwise comparisons between the combination group and each single agent group on day 33 are also statistically significant. […] Full statistical analysis is not feasible as the animals in the vehicle control groups were removed after 14 days of dosing as the animals are sacrificed due to tumor burden.

[4] = tested on: Hs746t-derived xenograft of human gastric carcinoma; assay: Hs746t xenograft model, Example 2 (sequential and concurrent administration); type: in vivo, mice
Method: as §2
Merestinib is formulated as a solution in 10% PEG 400/90% (20% Captisol in water). Emibetuzumab and IgG control are diluted in PBS. Solutions are freshly prepared every 7 days.
Obtain, maintain, expand, harvest, and wash Hs746t cell as in Example 1. Implant cells into 36 female nu/nu mice at a concentration of 2×10^6 cells in 0.2 ml HBSS subcutaneously into the hind flank of the animal. […] After the 28-day dosing period, animals in the single agent arms are sacrificed. Tumors in the animals in the combination treatment groups are monitored for continued growth or regrowth of tumors.
In these studies, animals are sacrificed using CO2 and cervical dislocation when tumors grow larger than 2000 mm^3, or at the end of study.
Measure tumor volumes and body weight at least twice weeky. Body weight measurement during the course of the study, is a general indicator of tolerability.
as §3, with “RM ANOVA” for “RMANOVA”
Transform tumor volume to the log scale to equalize variance across time and treatment groups. Analyze the log volume data with a two-way repeated measures analysis of variance by time and treatment using the MIXED procedures in SAS software (Version 9.3). The correlation model for the repeated measures is spatial power. Compare treated groups to the control group at each time point. The MIXED procedure is also used separately for each treatment group to calculate adjusted means and standard errors at each time point. Both analyses account for the autocorrelation within each animal and the loss of data that occurs when animals are removed or lost before the end of the study. The adjusted means and standard errors are plotted for each treatment group versus time. […]

| Compound | IC50 ([1]; Homo sapiens) [nM] | effect on pMET ([2]; at 65-100 nM) | tumor response course ([3]; merestinib 6 mg/kg qd orally) | T/C ([3]; merestinib 6 mg/kg qd orally, after 21 day dosing) [%] | mice with no tumor regrowth ([3]; merestinib 12 mg/kg cohort, during the 5 weeks post-treatment) | tumor regression ([3]; merestinib 12 mg/kg qd orally, after 21 day dosing) [%] | tumor volume on re-growth while on treatment ([4]; merestinib 6 mg/kg qd single agent, by Day 37) | maximal tumor regression ([4]; merestinib 6 mg/kg qd, Day 27 (7 days of dosing)) [%] | IC50 [1] [nM] | effect on pMET expression ([2]; at 130-650 nM) | tumor response course ([3]; emibetuzumab 10 mg/kg IP qw) | transient tumor regression ([3]; emibetuzumab 10 mg/kg IP qw, after 3 doses) [%] | maximum tumor regression ([4]; emibetuzumab 10 mg/kg qw, Day 27) [%] | maximum tumor regression ([4]; emibetuzumab 20 mg/kg qw, Day 37) [%] |
| --- | --- | --- | --- | --- | --- | --- | --- | --- | --- | --- | --- | --- | --- | --- |
| Cc1ccc(C(=O)Nc2ccc(Oc3cc4cnn(C)c4cc3-c3cn[nH]c3)c(F)c2)c(=O)n1-c1ccc(F)cc1 [merestinib, N-(3-Fluoro-4-(1-methyl-6-(1H-pyrazol-4-yl)-1H-indazol-5-yloxy)phenyl)-1-(4-fluorophenyl)-6-methyl-2-oxo-1,2-dihydropyridine-3-carboxamide] | 34 | totally eliminates | transient tumor regression followed by re-growth while on treatment | 18.3 | 6/7 | 91.8 | about 500 mm^3 | 30.2 |  |  |  |  |  |  |
| emibetuzumab: C8-H241-IgG4 anti-human MET antibody: two light chains of SEQ ID NO: 5 and two heavy chains of SEQ ID NO: 7 |  |  |  |  |  |  |  |  | > 100 | no effect | tumors are observed to regrow while on treatment | 37.7 | 16.0 | 58.9 |
